The values that follow come from patent US6093720A, “Trans apovincaminic acid ester derivatives” (Richter Gedeon Vegyeszeti GmbH, priority 1995, dated 2000).

The subject of experiment [1] is NADPH-Induced Lipid Peroxidation in Brain Microsomes. Briefly: NADPH-induced (enzymatic) lipid peroxidation in brain microsomes (AEI). The format is biochemical, rat (male Hannover-Wistar). Particulars: for IC50: NADPH-induced lipid peroxidation, rat brain microsomes, 37° C., 20 minutes, pH 6.8; for antioxidant effect in NADPH-induced lipid peroxidation, in words: comparison with reference compounds; for inhibition of NADPH-induced lipid peroxidation relative to silymarin (times as strongly): compared with silymarin.
Method: Effect on the NADPH-Induced Lipid Peroxidation in Brain Microsomes
Male Hannover-Wistar rats with a body weight of 150-250 g were used for the preparation of microsomes. After decapitation, the whole brain was removed and homogenized in a 10-fold volume of ice-cold 0.25 M saccharose solution. The homogenate was centrifuged in a Hitachi CR 26H equipment at 15000 g at 4° C. for 10 minutes, then the supernatant was collected and centrifuged in a Hitachi SCP 85H apparatus at 78000 g at 4° C. for 60 minutes. After suspending the precipitate in 0.15 M KCl solution, the protein content of the obtained solution was determined and then adjusted to 10 mg/ml concentration. The microsome thus obtained was frozen in a dry ice-acetone mixture and stored at -70° C. until use. The components of the incubation mixture were: 50 mM TRIS-HCl (pH 6.8), 0.2 mM FeCl3, 1 mM KH2 PO4, 0.5 mM ADP, 0.2 mg of microsomes as well as the compound to be tested. The incubation was carried out with a final volume of 1 ml and with an incubation time of 20 minutes at a temperature of 37° C. The lipid peroxidation was induced by adding 0.4 mM NADPH.
The formation of malondialdehyde was determined by using thiobarbituric acid. After stopping the reaction, 1 ml of 1% thiobarbituric acid solution each was weighed to the samples, which were then placed in a water bath of about 100° C. for 10 minutes. Subsequently, the samples were centrifuged at 2000 g in a Janetzki K70 apparatus at 4° C. for 10 minutes. The absorbance values of the colored supernatant were measured at 535 nm in a Hitachi 150-20 spectrophotometer. Malondialdehyde bis(diethylacetal) was used as reference compound.

Experiment [2] deals with Fe^2+ -Induced Lipid Peroxidation in Brain Homogenate. The experiment can be described thus: Fe^2+-induced (non-enzymatic) lipid peroxidation in brain homogenate (ANI). The format is biochemical, rat (Hannover-Wistar). Particulars: for IC50: Fe^2+-induced lipid peroxidation, rat brain homogenate, 37° C., 20 minutes, pH 7.4; for antioxidant activity in Fe^2+-induced lipid peroxidation, in words: comparison with idebenone, DL-α-tocopherol or silymarin.
Method: Effect on the Fe^2+ -Induced Lipid Peroxidation in Brain Homogenate
After decapitating Hannover-Wistar rats weighing 150-220 g each, the whole brain was homogenized in 9 volumes of ice-cold Krebs-Ringer's buffer containing 15 mM HEPES, (4-(2-hydroxyethyl)-1-piperazinylethanesulfonic acid) (pH 7.4), 140 mM NaCl7 3.6 mM KCl, 1.5 mM CaCl2, 0.7 mM MgCl2, 1.4 mM KH2 PO4 and 10 glucose. Then the protein content of the solution was determined and adjusted to 10 mg/ml concentration.
After adding the inhibitory agent to be tested in a volume of 5 μl to 200 μl of the homogenate, the incubation mixture was incubated at 37° C. for 20 minutes. The Fe^2+ -induced lipid peroxidation was accomplished by adding 5 μl of 8 mM Fe2 (NH4)2 (SO4)2 solution. After passing of the incubation time, the reaction was stopped by adding 1 ml of a stopping solution containing 0.8 M HCl and 12.5% trichloroacetic acid, then the samples were centrifuged at 2000 g in a Janetzki K70 apparatus at 4° C. for 10 minutes.
To a 0.5 ml portion of the supernatant, 1 ml of 1% thiobarbituric acid solution was added, then the samples were placed in a water bath of 100° C. for 20 minutes. The color intensity developed was determined at 535 nm with a Hitachi 150-20 spectrophotometer by using malondialdehyde bis(diethylacetal) as reference compound.
ANI: non-enzymatically (Fe^2+) induced lipid peroxidation test

Experiment [3] is described as follows: Antiischemic effect on bilateral (carotid) artery ligation model, mortality. The format is in vivo, mice. Particulars: for mortality at 2 mg/kg / ED50: Mus musculus, ip; for mortality at 2 mg/kg: 24 h, 30 minutes before 5-minute bilateral carotid ligation, control mortality 70%; for mortality at 2 mg/kg / antiischemic activity, in words: 2 mg/kg i.p.; for ED50: dose diminishing the mortality by 50% in comparison to the untreated control group; for antiischemic activity, in words: bilateral artery ligation, mice. The method, then: 1. Antiischemic Effect (On Bilateral Artery Ligation Model)
N. Himori et al.: Cerebral ischemia model with conscious mice involvement of NMDA receptor activation and derangement of learning and memory ability [J. Pharmacol. Meth. 23, 311-327 (1990)].
Carotid arteries of mice (weighing 30 to 32 g each) were exposed bilaterally under anaesthesia by 450 mg/kg of intraperitoneal (i.p.) chloral hydrate. The sympathetic and vagal nerves were separated and a loose ligation was bilaterally placed below the carotid arteries. Both ends of the ligation were led out on the back, behind the ears. Next day, in conscious state both ends of the ligation were pulled resulting in the stopping of blood supply through the carotid arteries. This was maintained for 5 minutes, then released to provide the reperfusion. The number of animals died during the 5-minute period and the following 24 hours were registered. The calculation of significance was performed by the chi^2 test. The pre-treatment with the compound was carried out intraperitoneally (i.p.) 30 minutes before the ligation.
The transient dramatic decrease in the cerebral blood supply, then the starting of reperfusion after stopping the ligation leads to the formation of extremely toxic oxygen free radicals (superoxide radical, hydrogen peroxide). […] [ED50 is the dose (as mg/kg) diminishing the mortality by 50% in comparison to the untreated is control group].

Experiment [4] can be described thus: Diazepam-induced anterograde amnesia (passive avoidance). Type of experiment: in vivo, NMRI mice. Particulars: for Inhibition of the diazepam-induced amnesia %: 1 hour before learning, diazepam 3 mg/kg i.p.; for antiamnesic activity, in words: diazepam-induced anterograde amnesia, 0.1 and 10 mg/kg p.o. An excerpt:
2. Diazepam-Induced Anterograde Amnesia C. L. Broekkamp et al.: The comparative effects of benzodiazepines, progabide and PK 9084 on acquisition of passive avoidance in mice [Psychopharmacology (Berlin) 83, 122-125 (1984)]. The memory test was accomplished on NMRI mice weighing 25 to 28 g each by using the passive avoidance, a method based on the genetically determined nyctophilic behavior of rodents. During the learning period, the pre-selected animals (mice entering the dark space from the illuminated space within 30 seconds) were placed in an illuminated space. After entering the dark space, the animal received an electric shock (1 mA for […]) onto its planta within 30 seconds, then the time until entry to the dark space (latency period) was registered. After 24 hours, the animals were placed again in the illuminated space and the time until crossing over to the dark space (retention time=T with a time limit of 300 seconds) was measured. For inducing an anterograde amnesia, the animals were treated intraperitoneally with 3 mg/kg of diazepam 30 minutes before learning. The compounds were administered orally in 0.1 or 10 mg/kg doses, respectively 1 hour before learning. [formula]

Values joined by “and” are separate entries in the source; they are usually repeats but may differ in a detail not shown here. Identical values can stand only once. Counter-ions that a name gives are not always drawn.

Broadly, the IC50 is the concentration that inhibits the measured activity by half. Broadly, the mortality is the percentage killed. A low value points to more survivors. The ED50 is the dose that gives a 50% effect, or the effect in half of the subjects.

Regarding “(-)-Bis-trans apovincaminic acid ethyleneglycol ester(3β,16β)dihydrochloride [Compound 1011008]”, in experiment [1], the midpoint of inhibition, the IC50, lay at 6 µM and the “antioxidant effect in NADPH-induced lipid peroxidation, in words” value (“antioxidant effect” for short) is listed as “comparable to that of idebenone”. In experiment [2], the IC50 came to 21.2 µM and the “antioxidant activity in Fe^2+-induced lipid peroxidation, in words” value (“antioxidant activity” below) is listed as “exceeded that of silymarin”.

Take `CC[C@@]12C=C(C(=O)OCCOC(=O)c3ccccc3)n3c4c(c5ccccc53)CCN(CCC1)[C@@H]42` [Compound 1010960, (-)-trans apovincaminic acid 2-(benzoyloxy)ethyl ester(3β,16α)hydrochloride]: in experiment [1], the IC50 is 7.4 µM and < 10 µM; the “inhibition of NADPH-induced lipid peroxidation relative to silymarin (times as strongly)” value is on record as “about 20 times”. In experiment [2], the IC50 is 5.7 µM and < 10 µM; the “antioxidant activity” value was “about twice as active as idebenone or DL-α-tocopherol”. In addition, the mortality at 2 mg/kg in experiment [3] lay in the range of 10 to 30%. Besides, the “Inhibition of the diazepam-induced amnesia %” value in experiment [4] (0.1 mg/kg p.o.) was 0%. For the same compound, the “Inhibition of the diazepam-induced amnesia %” value in experiment [4] (10.0 mg/kg p.o.) is 0%.

For `CC[C@@]12C=C(C(=O)OCCOC(=O)c3ccc([N+](=O)[O-])cc3)n3c4c(c5ccccc53)CCN(CCC1)[C@@H]42` [Compound 2705284, (-)-trans apovincaminic acid 2-(4-nitrobenzoyloxy)ethyl ester(3β,16α)], the IC50 in experiment [1] was determined as 20.4 µM. Besides, in experiment [2], the midpoint of inhibition, the IC50, lay at 6.8 µM and the “antioxidant activity” value was “about twice as active as idebenone or DL-α-tocopherol”.

For `CCOC(=O)C1=C[C@]2(CC)CCCN3CCc4c(n1c1ccccc41)[C@@H]32` [Vinpocetine, reference compound], the “Inhibition of the diazepam-induced amnesia %” value worked out at 0% in experiment [4] (0.1 mg/kg p.o.) and 123% in experiment [4] (10.0 mg/kg p.o.).

`CC[C@@]12C=C(C(=O)OCCOC(=O)c3cccs3)n3c4c(c5ccccc53)CCN(CCC1)[C@@H]42` [Compound 2705283, (-)-trans apovincaminic acid 2-(2-thiophenoyloxi)ethyl ester(3β,16α)monohydrochloride]: in experiment [1], the IC50 stood at 11.2 µM and the “inhibition of NADPH-induced lipid peroxidation relative to silymarin (times as strongly)” value is “about 20 times”. Besides, in experiment [2], the IC50 was 6.8 µM and the “antioxidant activity” value is reported as “about twice as active as idebenone or DL-α-tocopherol”.

Take `Cc1c(C)c2c(c(C)c1O)CCC(C)(CCCC(C)CCCC(C)CCCC(C)C)O2` (racemic) [Vitamin E, 2,5,7,8-tetramethyl-2-(4',8',12'-trimethyltridecyl)-6-chromanol, reference compound]: the IC50 in experiment [1] was 406 µM. The compound also returned an IC50 in experiment [2] of 12.1 µM. In experiment [3], the mortality at 2 mg/kg was 70%; the ED50 was determined as 17.8 mg/kg; the “antiischemic activity, in words” value was “less active in the same dose”.

In the case of `CC[C@]12C=C(C(=O)OCCOC(=O)c3ccc(Cl)cc3)n3c4c(c5ccccc53)CCN(CCC1)[C@H]42` [Compound 1011037, (+)-trans apovincaminic acid 2-(4-chloro-benzoyloxy)-ethyl ester(3α,16β)methanesulfonate], in experiment [1], half-maximal inhibition (IC50) was put at 3.2 µM and the “antioxidant effect” value was “comparable to that of idebenone”. The compound further displayed an IC50 in experiment [2] of 11.4 µM. Besides, the mortality at 2 mg/kg in experiment [3] was determined as 50%.

Take `CC[C@@]12C=C(C(=O)OCCOC(=O)c3ccc(Cl)cc3)n3c4c(c5ccccc53)CCN(CCC1)[C@@H]42` [Compound 1010961, (-)-trans apovincaminic acid 2-(4-chlorobenzoyloxy)ethyl ester(3β,16α)methanesulfonate]: the IC50 in experiment [1] was 5.9 µM and < 10 µM; in experiment [2], 5.3 µM and < 10 µM. Besides, the “antioxidant effect” value in experiment [1] is on record as “comparable to that of idebenone”. For the same compound, the “antioxidant activity” value in experiment [2] is on record as “about twice as active as idebenone or DL-α-tocopherol”. This compound also showed a mortality at 2 mg/kg in experiment [3] of 60%. Also, the “Inhibition of the diazepam-induced amnesia %” value is listed as 3% in experiment [4] (0.1 mg/kg p.o.) and 15% in experiment [4] (10.0 mg/kg p.o.).

Take `CC[C@@]12C=C(C(=O)OCCOC(=O)c3cc(OC)c(OC)c(OC)c3)n3c4c(c5ccccc53)CCN(CCC1)[C@@H]42` [Compound 1011005, (-)-trans apovincaminic acid 2-(3,4,5-trimethoxybenzoyloxy)-ethyl ester(3β,16α)hydrochloride]: in experiment [1], the IC50 worked out at 10.3 µM and the “inhibition of NADPH-induced lipid peroxidation relative to silymarin (times as strongly)” value is recorded as “about 20 times”. In experiment [2], this compound had an IC50 of 11.9 µM. For the same compound, in experiment [3], the mortality at 2 mg/kg amounted to 70%.

Consider `CCC(=O)OCCOC(=O)C1=C[C@]2(CC)CCCN3CCc4c(n1c1ccccc41)[C@H]32` [Compound 1010962, (-)-trans apovincaminic acid 2-(propionyloxyethyl)ester(3β,16α)hydrochloride], for which the IC50 in experiment [1] is 7.5 µM and < 10 µM; in experiment [2], 5.7 µM and < 10 µM. Further, the “inhibition of NADPH-induced lipid peroxidation relative to silymarin (times as strongly)” value in experiment [1] is listed as “about 20 times”. In addition, the “antioxidant activity” value in experiment [2] was “about twice as active as idebenone or DL-α-tocopherol”. Also, the mortality at 2 mg/kg in experiment [3] was found to be 40%. For the same compound, the “Inhibition of the diazepam-induced amnesia %” value is on record as 16% in experiment [4] (0.1 mg/kg p.o.) and 4% in experiment [4] (10.0 mg/kg p.o.).

Turning to `CC[C@]12C=C(C(=O)OCCOC(C)=O)n3c4c(c5ccccc53)CCN(CCC1)[C@H]42` [Compound 1010886, (+)-trans apovincaminic acid 2-(acetoxy)ethyl ester(3α,16β)hydrochloride], in experiment [1], the IC50 is 7.6 µM and < 10 µM; the “inhibition of NADPH-induced lipid peroxidation relative to silymarin (times as strongly)” value is on record as “about 20 times”. Moreover, in experiment [2], the IC50 was 7.7 µM and < 10 µM; the “antioxidant activity” value is “about twice as active as idebenone or DL-α-tocopherol”. Besides, the “Inhibition of the diazepam-induced amnesia %” value in experiment [4] (0.1 mg/kg p.o.) is 72%. The “Inhibition of the diazepam-induced amnesia %” value in experiment [4] (10.0 mg/kg p.o.) was 44%. Besides, in experiment [4], the “antiamnesic activity, in words” value was “particularly effective”.

Turning to `CC[C@]12C=C(C(=O)OCCO)n3c4c(c5ccccc53)CCN(CCC1)[C@H]42` [Compound 1010887, (+)-trans apovincaminic acid 2-hydroxyethyl ester(3α,16β)], the values for the IC50 in experiment [1] and in experiment [2] were 12.6 µM and 7.2 µM, respectively. Further, the “inhibition of NADPH-induced lipid peroxidation relative to silymarin (times as strongly)” value in experiment [1] is reported as “about 20 times”. The “antioxidant activity” value in experiment [2] is recorded as “about twice as active as idebenone or DL-α-tocopherol”. Also, the “Inhibition of the diazepam-induced amnesia %” value in experiment [4] (0.1 mg/kg p.o.) came to 50%; in experiment [4] (10.0 mg/kg p.o.), 56%. In experiment [4], the “antiamnesic activity, in words” value was “particularly effective”.

In experiment [1], `COC1=C(OC)C(=O)C(CCCCCCCCCCO)=C(C)C1=O` [Idebenone, 6-(10-hydroxydecyl)-2,3-dimethoxy-5-methyl-1,4-benzoquinone, reference compound] had an IC50 of 1.2 µM. The same compound had an IC50 in experiment [2] of 18.9 µM. Moreover, in experiment [3], the mortality at 2 mg/kg stood at 40%; the ED50 came to 4.5 mg/kg; the “antiischemic activity, in words” value is reported as “less active in the same dose”.

With `CC[C@]12C=C(C(=O)OCCOC(=O)c3cc(OC)c(OC)c(OC)c3)n3c4c(c5ccccc53)CCN(CCC1)[C@H]42` [Compound 1011047, (+)-trans apovincaminic acid 2-(3,4,5-trimethoxybenzoyloxy)ethyl ester(3α,16β)], in experiment [1], the IC50 was 5.9 µM and the “antioxidant effect” value is listed as “comparable to that of idebenone”. Further, in experiment [2], half-maximal inhibition (IC50) required 16.1 µM and the “antioxidant activity” value is listed as “more strongly than idebenone”. Moreover, in experiment [3], the mortality at 2 mg/kg was determined as 50%.
